Results from the NIST ThermoML archive (doi:10.1021/je050060q).

Conditions: Liquid; for mass density: Pycnometric method

CCCCCCCCCCCCCCCC [hexadecane]
Conditions | mass density [kg/m3] | speed of sound [m/s]
293.15 K | 773.38 | 1357
298.15 K | 769.97 | 1338
303.15 K | 766.55 | –
308.15 K | 763.12 | 1301
313.15 K | 759.68 | 1283
318.15 K | 756.24 | 1265
323.15 K | 752.79 | 1246
328.15 K | 749.33 | 1228
333.15 K | 745.86 | 1211
338.15 K | 742.39 | 1193
343.15 K | 738.91 | 1176
348.15 K | 735.42 | 1158
353.15 K | 731.93 | 1141
358.15 K | 728.43 | 1124
363.15 K | 724.92 | 1107
368.15 K | 721.4 | 1090
373.15 K | 717.88 | 1074

CCCCCC [hexane]
Conditions | mass density [kg/m3] | speed of sound [m/s]
293.15 K | 659.44 | 1098
298.15 K | 654.93 | 1076
303.15 K | 650.36 | 1054
308.15 K | 645.74 | 1032
313.15 K | 641.08 | 1010
318.15 K | 636.37 | 988
323.15 K | 631.61 | 966
328.15 K | 626.81 | 944
333.15 K | 621.95 | 921
338.15 K | – | 900
343.15 K | – | 878
348.15 K | – | 856
353.15 K | – | 834
358.15 K | – | 812
363.15 K | – | 790
368.15 K | – | 768
373.15 K | – | 747
